The values that follow are results of earlier work, collected in paper PMC4791274, “Cerdulatinib, a novel dual SYK/JAK kinase inhibitor, has broad anti-tumor activity in both ABC and GCB types of diffuse large B cell lymphoma” (Oncotarget, 2015).

One series deals with R/R patients (DLBCL). On the set-up: method as in PMID 17389337. The conditions noted are these: number of patients, in 55 R/R patients; cited from earlier work.
The test system of a further series is DLBCL patients. The conditions noted are these: available clinical data; cited from earlier work.
For series [1], the system named is relapsed/refractory (R/R) DLBCL patients. On the set-up: method as in PMID 19965662. As to conditions: 5 of 23 R/R DLBCL patients, phase I/II; cited from earlier work.
The next series concerns DHL2 cell line. On the set-up: method as in PMID 22025527. The conditions noted are these: cited from earlier work.
The test system of the next series is LY4 cell line. On the set-up: method as in PMID 22025527. The conditions noted are these: LY4, lacks surface immunoglobulins; cited from earlier work.
The next series relates to DLBCL cells. As to conditions: cited from earlier work.
In the next series the test system is LY3 cell line. On the set-up: method as in PMID 22025527. The conditions noted are these: cited from earlier work.
The test system of a further series is R/R DLBCL. More on the design: method as in PMID 26193343. The conditions noted are these: phase II, 80 R/R DLBCL; cited from earlier work.

As to `Cn1cc(C2=C(c3cn(C4CCN(Cc5ccccn5)CC4)c4ccccc34)C(=O)NC2=O)c2ccccc21` [Enzastaurin], in the series with R/R patients (DLBCL), the complete responses is 3 and the stable disease is recorded as 1. Also, the “fraction of DLBCL patients in whom active” value in the series with DLBCL patients was at most 20%.

As for `COc1cc(Nc2ncc(F)c(Nc3ccc4c(n3)N(COP(=O)(O)O)C(=O)C(C)(C)O4)n2)cc(OC)c1OC` [Fostamatinib], the objective response in series [1] is recorded as 22%. Further, the “fraction of DLBCL patients in whom active” value in the series with DLBCL patients is at most 20%.

Consider `Cc1cccc(Nc2nc(N[C@@H]3CCCC[C@@H]3N)ncc2C(N)=O)c1` [PRT060318], for which the “sensitivity to SYK selective inhibitor” value with DHL2 cell line and in the series with LY3 cell line was “insensitive” each time. Also, in the series on LY4 cell line, the “sensitivity to selective SYK inhibition” value is “resistant”. In addition, in the series on DLBCL cells, the “impact on cell viability” value is on record as “minimal impact on cell viability”.

With `Cc1nc(Nc2ncc(C(=O)Nc3c(C)cccc3Cl)s2)cc(N2CCN(CCO)CC2)n1` [dasatinib], the “impact on cell viability” value in the series on DLBCL cells is “minimal impact on cell viability”.

`C=CC(=O)N1CCC[C@@H](n2nc(-c3ccc(Oc4ccccc4)cc3)c3c(N)ncnc32)C1` [ibrutinib]: in the series on R/R DLBCL, the “response rate of all DLBCL tumors” value is given as 19%; the “responsive tumors, ABC subtype” value is 37%; the “responsive tumors, GCB subtype” value is recorded as 5%.
